Assay results taken from patent publication US9149044B2, “Pesticidal compositions” (Syngenta Participations AG, priority 2011, dated 2015).

Test system: Heterodera glycines race 3
Assay: Soybean pot test, cyst count as indicator of nematode control
Assay type: in vivo
Conditions: 28 days after planting
Text: A plug measuring 0.75 inch (approximately 1.9 cm) in diameter and 1 inch (approx. 2.5 cm) in depth was removed from each 3 inch diameter×8 inch deep (approx. 7.6×20 cm) plastic pot. Five thousand Heterodera glycines race 3 eggs were placed at the bottom of the plug hole. A soybean variety 3.6-B6 seed was placed on top of the inoculum. Six replicates were made for each treatment group. In addition to untreated control, the treatment groups were Pasteuria nishizawae, Bacillus firmus, and Pasteuria nishizawae+Bacillus firmus.
Bacillus firmus came applied as a seed treatment (available commercially, for example, from Bayer Crop Science as VOTIVO product, PONCHO/VOTIVO, having Bacillus firmus concentration at least 2×10^9 cfu/ml+clothianidin (0.13 mg/seed)). A point application containing Pasteuria nishizawae (approximately 5.0×10^9 spores) was applied directly to the seed in the pot. The plug was replaced in the hole to cover the seed. The soil was Vero Beach (Florida, USA) top soil, pH 5.9 (approximate composition sand 93%, silt 2%, clay 2%, organic matter 3%).
At 28 days after planting, plant height was measured and plants were removed from the pots. Soil was gently rinsed from the roots. The rinsed roots were placed in a 20 mesh over a 60 mesh sieve. The root system was blasted with water to remove cyst nematode females. The 20 mesh sieve was removed and the cysts were washed to the bottom of the 60 mesh sieve. The cysts were rinsed into a tube for counting under a stereoscope. Later the dry root weights were measured.

Pasteuria nishizawae
Average Cyst Count (5000 eggs per pot, average of six replicates): 366 | Cyst Count (5000 eggs per pot, cysts washed from roots, average of six replicates): 366 | % Control Observed (from cyst count versus untreated control): 2.40%
